Assay results taken from patent US20210038626A1, “COMPOSITIONS COMPRISING AND METHODS OF USING INHIBITORS OF SODIUM-GLUCOSE COTRANSPORTERS 1 AND 2” (Lexicon Pharmaceuticals, Inc., priority 2011, published 2021).

What was measured:
[1] = system: patients with type 2 diabetes mellitus; assay: Phase 1 clinical trial comparing solid and liquid oral dosage forms, single 300 mg dose, crossover; type: in vivo, human; settings: single doses
Experimental: This invention is further based on findings obtained from a randomized, double-blind, placebo controlled Phase 1 clinical trial that compared liquid and solid dosage forms of the compound.
Patients (n=12) with type 2 diabetes mellitus received one of three oral formulations of 300 mg of (2S,3R,4R,5S,6R)-2-(4-chloro-3-(4-ethoxybenzyl)phenyl)-6-(methylthio)tetrahydro-2H-pyran-3,4,5-triol before breakfast: as two 150 mg tablets, six 50 mg tablets, or 30 mL of 10 mg/mL solution in a randomized sequence implementing a Latin Square crossover design, with a 5-day washout between doses.
Changes in urinary glucose excretion, fasting plasma glucose (FPG), insulin, postprandial glucose (PPG), peptide YY (PYY), and glucagon-like peptide-1(GLP-1) were measured at days −1, 1, 6, and 11.

[2] = system: human SGLT1 / human SGLT2; settings: ratio of human SGLT1 IC50 to human SGLT2 IC50
Experimental: HEK293 cells were transfected with the human HA-SGLT2-pIRESpuro2 vector and the bulk stable cell line was selected in presence of 0.5 μg/ml of puromycin. Human HA-SGLT2 cells were maintained in DMEM media containing 10% FBS, 1% GPS and 0.5 μg/ml of puromycin.
The HEK293 cells expressing the human HA-SGLT2 were seeded in 384 well plates (30,000 cells/well) in DMEM media containing 10% FBS, 1% GPS and 0.5 μg/ml of puromycin, then incubated overnight at 37 C, 5% CO2. Cells were then washed with uptake buffer (140 mM NaCl, 2 mM KCl, 1 mM CaCl2, 1 mM MgCl2, 10 mM HEPES, 5 mM Tris, 1 mg/ml bovine serum albumin (BSA), pH 7.3). Twenty microliters of uptake buffer with or without testing compounds were added to the cells. […] After washing the cells with uptake buffer, scintillation fluid was added (40 microliters/well) and ^14C-AMG uptake was measured by counting radioactivity using a scintillation coulter (TopCoulter NXT; Packard Instruments).
Cells were then washed with uptake buffer (140 mM NaCl, 2 mM KCl, 1 mM CaCl2, 1 mM MgCl2, 10 mM HEPES, 5 mM Tris, 1 mg/ml bovine serum albumin (BSA), pH 7.3). […] After washing the cells with uptake buffer, scintillation fluid was added (40 microliters/well) and ^14C-AMG uptake was measured by counting radioactivity using a scintillation coulter (TopCoulter NXT; Packard Instruments).

[3] = system: patients with type 2 diabetes mellitus; assay: Phase 2a clinical trial, liquid oral dosage form once daily for 28 days; type: in vivo, human
Experimental: Certain aspects of this invention may be understood with reference to the figures. FIGS. 1-10 show results obtained from a randomized, double-blind, placebo controlled Phase 2a clinical trial, wherein 150 mg and 300 mg doses of (2S,3R,4R,5S,6R)-2-(4-chloro-3-(4-ethoxybenzyl)phenyl)-6-(methylthio)tetrahydro-2H-pyran-3,4,5-triol were orally administered in solution once daily to patients with type 2 diabetes mellitus. FIG. 11 provides results obtained from a Phase 1 clinical trial, wherein both solid and liquid oral dosage forms of the compound were administered to patients with type 2 diabetes mellitus.
This invention is based, in part, on findings obtained from a randomized, double-blind, placebo controlled Phase 2a clinical trial, wherein 150 mg/day and 300 mg/day doses of a compound of the invention were orally administered in a liquid to patients with type 2 diabetes mellitus. The compound was (2S,3R,4R,5S,6R)-2-(4-chloro-3-(4-ethoxybenzyl)phenyl)-6-(methylthio)tetrahydro-2H-pyran-3,4,5-triol, which has the structure:
Patients (n=36) with type 2 diabetes mellitus received one of two oral doses of (2S,3R,4R,5S,6R)-2-(4-chloro-3-(4-ethoxybenzyl)phenyl)-6-(methylthio)tetrahydro-2H-pyran-3,4,5-triol, given as 150 mg or 300 mg once daily, or matching placebo, for 28 days in solution.
In this study, patients on metformin were taken off of the drug 16 days prior to day 0, the day dosing first began.

[4] = 150 mg and 300 mg once daily, 28 days

SGLT1 IC50: SGLT2 IC50 ratio [2]: about 20
SMILES: CCOc1ccc(Cc2cc([C@@H]3O[C@H](SC)[C@@H](O)[C@H](O)[C@H]3O)ccc2Cl)cc1 [(2S,3R,4R,5S,6R)-2-(4-chloro-3-(4-ethoxybenzyl)phenyl)-6-(methylthio)tetrahydro-2H-pyran-3,4,5-triol]
FPG and PPG levels [1]: markedly improved
GLP-1 and PYY levels [1]: increased
glucosuria compared to placebo ([3]; 150 mg and 300 mg once daily, 28-day dosing period, preliminary data): significant and sustained glucosuria
adverse events [3, 4]: generally mild and evenly distributed across all dose groups, including placebo
dose-limiting toxicities [3, 4]: no evidence of dose-limiting toxicities
glucose tolerance (FIG. 2) ([3]; 150 mg/day and 300 mg/day treatment groups vs placebo): greater glucose tolerance than those in the placebo group
plasma glucose levels (FIG. 1) ([3]; 150 mg/day and 300 mg/day treatment groups, upon treatment): rapid, statistically significant decrease
post-prandial glucose levels (FIG. 5) ([3]; 150 mg/day and 300 mg/day vs placebo): rapid, statistically significant decrease
insulin sensitivity, homeostatic model assessment (HOMA) (FIG. 4) ([3]; 150 mg/day and 300 mg/day vs placebo, day 27): improved insulin sensitivity compared to placebo
mean diastolic and systolic blood pressures (FIGS. 8 and 9) ([3]; 150 mg/day and 300 mg/day, after 28 days of dosing, vs placebo): decreased mean diastolic and systolic blood pressures
mean arterial pressures (FIG. 10) ([3]; 150 mg/day and 300 mg/day, day 28 vs baseline): also decreased
mean HbA1c levels (FIG. 7) ([3]; 150 mg/day and 300 mg/day, four weeks): marked decrease
